Experimental data from ChEMBL document CHEMBL5620386, “Synthesis, biological screening and in silico studies of new N-phenyl-4-(1,3-diaryl-1H-pyrazol-4-yl)thiazol-2-amine derivatives as potential antifungal and antitubercular agents” (Eur J Med Chem, 2023).
In brackets after ≈: the same amount, converted by molar mass. Several values for one entry are separate records, joined by “and”; a condition that tells them apart may be missing. Identical values can stand only once. Activity calls are given as the source filed them. The rule behind the calls is not given here.

Legend:
[1] = Cytotoxicity against mouse 3T3-L1 cells assessed as cell viability at 25 ug/ml measured after 24 hrs by MTT assay relative to control; assay type: toxicity, cell-based; details: at 25 µg/mL, read-out: Activity
[2] = test system: Escherichia coli; assay: Antimicrobial activity against Escherichia coli NCIM 2574 assessed as zone of inhibition by well diffusion method; assay type: functional
[3] = test system: Mycobacterium tuberculosis; assay: Antitubercular activity Mycobacterium tuberculosis H37Rv strain ATCC No- 27294 assessed as prevention of color change from blue to pink using Almar Blue measured after 24 hrs by MABA assay; assay type: functional
[4] = test system: Bacillus subtilis; assay: Antimicrobial activity against Bacillus subtilis NCIM 2063 assessed as zone of inhibition by well diffusion method; assay type: functional
[5] = test system: Proteus mirabilis; assay: Antimicrobial activity against Proteus mirabilis NCIM 2388 assessed as zone of inhibition by well diffusion method; assay type: functional
[6] = test system: Candida albicans; assay: Antifungal activity against Candida albicans NCIM 3100 assessed as zone of inhibition by well diffusion method; assay type: functional
[7] = test system: Staphylococcus aureus; assay: Antimicrobial activity against Staphylococcus aureus NCIM 2178 assessed as zone of inhibition by well diffusion method; assay type: functional
[8] = test system: Aspergillus niger; assay: Antifungal activity against Aspergillus niger ATCC 504 assessed as absence of growth by well diffusion method; assay type: functional
[9] = Cytotoxicity against mouse 3T3-L1 cells assessed as cell viability at 12.5 ug/ml measured after 24 hrs by MTT assay relative to control; assay type: toxicity, cell-based; details: at 12.5 µg/mL, read-out: Activity
[10] = test system: Aspergillus niger; assay: Antifungal activity against Aspergillus niger ATCC 504 assessed as zone of inhibition by well diffusion method; assay type: functional
[11] = test system: Staphylococcus aureus; assay: Antimicrobial activity against Staphylococcus aureus NCIM 2178 assessed as absence of growth by well diffusion method; assay type: functional
[12] = test system: Proteus mirabilis; assay: Antimicrobial activity against Proteus mirabilis NCIM 2388 assessed as absence of growth by well diffusion method; assay type: functional

Compound	viability at 24 h, 25 ug/ml [1] [%]	inhibition zone (IZ) [2]	MIC [3]	inhibition zone (IZ) [4] [mm]	inhibition zone (IZ) [5] [mm]	inhibition zone (IZ) [6] [mm]	inhibition zone (IZ) [7] [mm]	MIC [8]	viability at 24 h, 12.5 ug/ml [9] [%]	inhibition zone (IZ) [10] [mm]	MIC [11]	MIC [12] [µg/mL]
Fc1ccc(-n2cc(-c3csc(Nc4ccccc4)n3)c(-c3ccccc3)n2)cc1	94.8	inactive	12.5 µg/mL and 30.3 µM	12	13.8	10	15	15.6 µg/mL and 37.9 µM	99.5	18.6	125 µg/mL (≈ 303 µM)	
Fc1ccc(-n2cc(-c3csc(Nc4ccc(Cl)cc4)n3)c(-c3ccc(Cl)cc3)n2)cc1	56.7	11 mm	1.6 µg/mL and 3.33 µM	12.6	13.6	10.4	15	15.6 µg/mL and 32.5 µM	74.4	19	125 µg/mL (≈ 260 µM)	
COc1ccc(Nc2nc(-c3cn(-c4ccccc4)nc3-c3ccc(C)cc3)cs2)cc1	90.5	inactive	50 µg/mL and 114 µM	12.4	15	10.6	14	15.6 µg/mL and 35.7 µM	97.5	18.6	125 µg/mL (≈ 285 µM)	125 (≈ 285 µM)
COc1ccc(Nc2nc(-c3cn(-c4ccc(F)cc4)nc3-c3ccc(Cl)cc3)cs2)cc1	63.1	inactive	1.6 µg/mL and 3.36 µM	12.2	13.2	11.4	15	15.6 µg/mL and 32.8 µM	72.9	18.8	125 µg/mL (≈ 262 µM)	
Fc1ccc(-n2cc(-c3csc(Nc4ccccc4)n3)c(-c3ccc(Cl)cc3)n2)cc1	62.6	inactive	1.6 µg/mL and 3.58 µM	13.4	14.2	11	15	15.6 µg/mL and 35 µM	69.2	18.2	125 µg/mL (≈ 280 µM)	125 (≈ 280 µM)
CC[C@@H](CO)NCCN[C@@H](CC)CO [ETHAMBUTOL]			1.6 µg/mL and 7.83 µM									
Cc1ccc(-c2nn(-c3ccccc3)cc2-c2csc(Nc3ccc(Cl)cc3)n2)cc1	61.8	inactive	0.8 µg/mL and 1.8 µM	13.8	13.8	10	16	15.6 µg/mL and 35.3 µM	67.5	20	62.5 µg/mL and 141 µM	
Clc1ccc(-c2nn(-c3ccccc3)cc2-c2csc(Nc3ccccc3)n2)cc1		inactive	25 µg/mL and 58.4 µM	12	15.2	11	14	31.2 µg/mL and 72.8 µM		17.4	125 µg/mL (≈ 291 µM)	125 (≈ 291 µM)
CO[C@H]1/C=C/O[C@@]2(C)Oc3c(C)c(O)c4c(O)c(c(/C=N/N5CCN(C)CC5)c(O)c4c3C2=O)NC(=O)/C(C)=C\C=C\[C@H](C)[C@H](O)[C@@H](C)[C@@H](O)[C@@H](C)[C@H](OC(C)=O)[C@@H]1C [RIFAMPIN]			0.8 µg/mL and 0.972 µM									
Cc1ccc(-c2nn(-c3ccccc3)cc2-c2csc(Nc3ccccc3)n2)cc1	57.3	13 mm	12.5 µg/mL and 30.6 µM	11.4	15	9.6	15	15.6 µg/mL and 38.3 µM	64.6	20	125 µg/mL (≈ 306 µM)	125 (≈ 306 µM)
Cc1ccc(Nc2nc(-c3cn(-c4ccccc4)nc3-c3ccccc3)cs2)cc1		inactive	50 µg/mL and 122 µM	12	15	10.4	15	15.6 µg/mL and 38.3 µM		18.4	125 µg/mL (≈ 306 µM)	125 (≈ 306 µM)
NNC(=O)c1ccncc1 [ISONIAZID]			1.6 µg/mL and 11.7 µM									
NC(=O)c1cnccn1 [PYRAZINAMIDE]			3.12 µg/mL and 25.4 µM									
Clc1ccc(Nc2nc(-c3cn(-c4ccccc4)nc3-c3ccccc3)cs2)cc1		inactive	25 µg/mL and 58.4 µM	12.2	14.8	11.2	15.8	15.6 µg/mL and 36.5 µM		19.2	62.5 µg/mL and 146 µM	125 (≈ 291 µM)
Cc1ccc(Nc2nc(-c3cn(-c4ccccc4)nc3-c3ccc(Cl)cc3)cs2)cc1	72.9	inactive	1.6 µg/mL and 3.61 µM	12	14	10.2	15	15.6 µg/mL and 35.3 µM	83.8	18.2	125 µg/mL (≈ 282 µM)	125 (≈ 282 µM)
COc1ccc(Nc2nc(-c3cn(-c4ccc(F)cc4)nc3-c3ccccc3)cs2)cc1	97.2	inactive	3.12 µg/mL and 7.07 µM	12.4	13.8	10.4	15	15.6 µg/mL and 35.3 µM	98.2	19.2	125 µg/mL (≈ 282 µM)	
COc1ccc(Nc2nc(-c3cn(-c4ccccc4)nc3-c3ccccc3)cs2)cc1		inactive	25 µg/mL and 58.9 µM	12.75	14.2	11.6	15	15.6 µg/mL and 36.8 µM		20	125 µg/mL (≈ 294 µM)	125 (≈ 294 µM)
Cc1ccc(Nc2nc(-c3cn(-c4ccccc4)nc3-c3ccc(C)cc3)cs2)cc1		inactive	1.6 µg/mL and 3.79 µM	13.2	15	11.4	13	15.6 µg/mL and 37 µM	70.1	18		125 (≈ 296 µM)
